In patent US12202844B2, “MAP4K1 inhibitors” (Blueprint Medicines Corporation, priority 2021, dated 2025):

target: T1, MAP4K1 (HPK1) (Homo sapiens, UniProt Q92918); test: Inhibition of MAP4K1 biochemical enzymatic activity (EZReader 2 electrophoretic mobility shift); settings: HPK1 (Invitrogen), S6K2tide 1.5 μM, 120 min; ATP 26 μM or 1000 μM (not given)
T1 construct: purchased Invitrogen
From the text: MAP4K1 (HPK1) and relevant off-target enzymatic activity was monitored using the Perkin Elmer electrophoretic mobility shift technology platform—the EZReader 2. […] Within the linear, steady-state phase of the kinase enzymatic reaction, the mixed pool of phosphorylated (product) and non-phosphorylated (substrate) peptides was passed through the microfluidic system of the PerkinElmer EZ Reader 2, under an applied electric potential difference. The presence of the phosphate group on the product peptide provided a difference in mass and charge between that of the substrate peptide, resulting in a separation of the substrate and product pools in the sample (Perrin et al. 2010). As the product and substrate peptide mixture passes the lasers within the instrument, these pools are detected (λex=488 nm, λem=568 nm) and resolved as separate peaks. The ratio between these peaks reflects the activity of the compound at that concentration, in that well, under those conditions.
Inhibitors were dissolved in 100% DMSO at a stock concentration of 10 mM. A 100×, 10-point, 4-fold serial dilution of each inhibitor was created in 100% DMSO either manually or on a Hamilton STAR liquid handler, starting at a relevant concentration, usually 1 mM. A volume of 0.130 μL of each concentration was transferred to the relevant wells of a 384-well plate (Greiner 781 201) in duplicate using a TTPLabtech Mosquito nano-litre dispenser. Using a Multidrop Combi, the remaining constituents of the kinase reaction were added to the 130 nL of dosed compound as follows (see table below for final reaction details):
Enzyme activity assays at the ^APPKM for ATP or 1 mM ATP: In each well of a 384-well plate, 0.1-15 nM of untreated enzyme was incubated in a total of 13 μL of buffer (100 mM HEPES pH 7.5, 0.015% Brij 35, 10 mM MgCl2, 1 mM DTT) with 1.5 μM fluorescent peptid and 20-1000 μM ATP, at 25° C., for 60-180 minutes in the presence or absence of a dosed concentration series of compound (1% DMSO final concentration). The kinase reactions were stopped by the addition of 70 μl of Stop buffer (100 mM HEPES pH 7.5, 0.015% Brij 35, 35 mM EDTA and 0.2% of Coating Reagent 3 (Caliper Lifesciences)). The plates were read on a Caliper EZReader 2 as described above.

T1 sequence (Q92918 whole entry): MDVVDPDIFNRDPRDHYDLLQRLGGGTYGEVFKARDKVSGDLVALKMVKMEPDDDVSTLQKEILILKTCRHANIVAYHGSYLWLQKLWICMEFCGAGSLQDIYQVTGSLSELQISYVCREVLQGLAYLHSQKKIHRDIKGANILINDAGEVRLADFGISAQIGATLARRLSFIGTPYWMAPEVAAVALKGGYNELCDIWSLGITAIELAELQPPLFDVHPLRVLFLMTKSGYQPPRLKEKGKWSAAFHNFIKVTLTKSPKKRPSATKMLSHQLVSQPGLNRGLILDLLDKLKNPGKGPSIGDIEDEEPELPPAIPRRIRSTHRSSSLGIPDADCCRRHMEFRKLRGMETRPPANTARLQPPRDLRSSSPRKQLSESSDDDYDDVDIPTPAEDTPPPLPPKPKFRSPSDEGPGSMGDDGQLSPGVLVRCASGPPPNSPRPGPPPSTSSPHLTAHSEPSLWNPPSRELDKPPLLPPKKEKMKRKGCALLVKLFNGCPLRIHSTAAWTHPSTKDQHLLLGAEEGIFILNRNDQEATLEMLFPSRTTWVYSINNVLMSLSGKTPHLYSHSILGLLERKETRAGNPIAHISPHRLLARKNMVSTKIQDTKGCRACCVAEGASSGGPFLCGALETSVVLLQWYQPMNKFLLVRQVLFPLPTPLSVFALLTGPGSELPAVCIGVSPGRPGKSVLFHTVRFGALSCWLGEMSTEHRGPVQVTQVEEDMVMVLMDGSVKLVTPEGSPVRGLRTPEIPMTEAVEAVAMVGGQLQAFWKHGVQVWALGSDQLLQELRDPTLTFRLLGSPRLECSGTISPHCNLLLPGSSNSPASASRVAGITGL

Compound	IC50 [pM]
CC[C@@](C)(N)c1cnc(O[C@@H](C)CCS(C)(=O)=O)c2cnc(Nc3ccc4c(n3)C3(CC3)[C@@H](C)OC4=O)cc12 (single isomer, unassigned) [Compound 147]	460
CC[C@@](C)(N)c1cnc(O[C@H]2C[C@@H](S(C)(=O)=O)C2)c2cnc(Nc3ccc4c(n3)[C@@H](C)[C@@H](C)OC4=O)cc12 (single isomer, unassigned) [Compound 149]	250
C[C@@H]1OC(=O)c2ccc(Nc3cc4c(C(C)(C)N)cnc(O[C@@H](C)C[C@@H]5CCCS5(=O)=O)c4cn3)nc2[C@H]1C (single isomer, unassigned) [Compound 154]	620
C[C@@H]1OC(=O)c2ccc(Nc3cc4c(C(C)(C)N)cnc(O[C@@H](C)C[C@@H]5CCCS5(=O)=O)c4cn3)nc2[C@H]1C (single isomer, unassigned) [Compound 156]	2380
C[C@@H]1OC(=O)c2ccc(Nc3cc4c(C(C)(C)N)cnc(O[C@@H](C)C[C@@H]5CCCS5(=O)=O)c4cn3)nc2[C@H]1C (single isomer, unassigned) [Compound 157]	1570
COC[C@@](C)(N)c1cnc(O[C@H]2C[C@@H](S(C)(=O)=O)C2)c2cnc(Nc3ccc4c(n3)C3(CC3)[C@H](C)OC4=O)cc12 (single isomer, unassigned) [Compound 163]	220
CC[C@@](C)(N)c1cnc(O[C@H](C)CC[S@@+](C)[O-])c2cnc(Nc3ccc4c(n3)[C@@H](C)[C@H](C)OC4=O)cc12 (single isomer, unassigned) [Compound 166]	200
CC[C@@](C)(N)c1cnc(O[C@H](C)CC[S@+](C)[O-])c2cnc(Nc3ccc4c(n3)[C@@H](C)[C@H](C)OC4=O)cc12 (single isomer, unassigned) [Compound 167]	190
C[C@@H]1OC(=O)c2ccc(Nc3cc4c(C(C)(C)N)cnc(O[C@@H](CCS(C)(=O)=O)C(F)(F)F)c4cn3)nc2[C@H]1C (single isomer, unassigned) [Compound 174]	5350
C[C@@H]1OC(=O)c2ccc(Nc3cc4c(C(C)(C)N)cnc(O[C@H](CCS(C)(=O)=O)C(F)(F)F)c4cn3)nc2[C@H]1C (single isomer, unassigned) [Compound 175]	23300
CC[C@@](C)(N)c1cnc(O[C@H](C)CC(C)(C)[S@@](C)(=N)=O)c2cnc(Nc3ccc4c(n3)C(C)(C)[C@@H](C)OC4=O)cc12 (single isomer, unassigned) [Compound 187]	2200
C[C@@H]1OC(=O)c2ccc(Nc3cc4c(C(C)(C)N)cnc(OC5CS(=O)(=O)C5)c4cn3)nc2[C@H]1C [Compound 1]	260
CC(C)(N)c1cnc(O[C@H]2C[C@@H](S(C)(=O)=O)C2)c2cnc(Nc3ccc4c(n3)C(C)(C)OC4=O)cc12 [Compound 4]	1850
C[C@@H]1c2nc(Nc3cc4c(C(C)(C)N)cnc(OC5(C)CS(=O)(=O)C5)c4cn3)ccc2C(=O)OC1(C)C [Compound 10]	120
C[C@@H]1c2nc(Nc3cc4c(C(C)(C)N)cnc(OCC5CS(=O)(=O)C5)c4cn3)ccc2C(=O)OC1(C)C [Compound 12]	560
C[C@@H]1OC(=O)c2ccc(Nc3cc4c(C(C)(C)N)cnc(O[C@H]5C[C@H](S(C)(=O)=O)C5)c4cn3)nc2[C@H]1C [Compound 14]	280
CC[C@@](C)(N)c1cnc(OCCCS(C)(=O)=O)c2cnc(Nc3ccc4c(n3)[C@@H](C)[C@H](C)OC4=O)cc12 [Compound 20]	130
CC[C@@](C)(N)c1cnc(OCCCS(C)(=O)=O)c2cnc(Nc3ccc4c(n3)C(C)(C)COC4=O)cc12 [Compound 22]	300
CC[C@@](C)(N)c1cnc(OCCCS(C)(=O)=O)c2cnc(Nc3ccc4c(n3)CC(C)(C)OC4=O)cc12 [Compound 23]	300
CC[C@@](C)(N)c1cnc(O[C@H]2C[C@@H](S(C)(=O)=O)C2)c2cnc(Nc3ccc4c(n3)CC(C)(C)OC4=O)cc12 [Compound 32]	180
CC[C@@](C)(N)c1cnc(O[C@H]2C[C@@H](S(C)(=O)=O)C2)c2cnc(Nc3ccc4c(n3)C(C)(C)COC4=O)cc12 [Compound 33]	210
CC[C@@](C)(N)c1cnc(OCCCS(C)(=O)=O)c2cnc(Nc3ccc4c(n3)C3(CC3)C(C)(C)OC4=O)cc12 [Compound 44]	190

Other lines, results leading:

IC50 [pM]	Compound
200	CCC[C@@](C)(N)c1cnc(O[C@H](C)C[C@@H](C)S(C)(=O)=O)c2cnc(Nc3ccc4c(n3)[C@@H](C)C(C)(C)OC4=O)cc12 (single isomer, unassigned) [Compound 142]
860	C[C@H](C[C@H]1CCCS1(=O)=O)Oc1ncc(C(C)(C)N)c2cc(Nc3ccc4c(n3)[C@@H](C)C(C)(C)OC4=O)ncc12 (single isomer, unassigned) [Compound 158]
420	C[C@H](C[C@H]1CCCS1(=O)=O)Oc1ncc(C(C)(C)N)c2cc(Nc3ccc4c(n3)[C@@H](C)C(C)(C)OC4=O)ncc12 (single isomer, unassigned) [Compound 159]
1610	C[C@H](C[C@H]1CCCS1(=O)=O)Oc1ncc(C(C)(C)N)c2cc(Nc3ccc4c(n3)[C@@H](C)C(C)(C)OC4=O)ncc12 (single isomer, unassigned) [Compound 160]
940	C[C@H](C[C@H]1CCCS1(=O)=O)Oc1ncc(C(C)(C)N)c2cc(Nc3ccc4c(n3)[C@@H](C)C(C)(C)OC4=O)ncc12 (single isomer, unassigned) [Compound 161]
1150	COC[C@@](C)(N)c1cnc(O[C@H](C)C[C@@H](C)S(C)(=O)=O)c2cnc(Nc3ccc4c(n3)C3(CC3)[C@H](C)OC4=O)cc12 (single isomer, unassigned) [Compound 165]
600	C[C@@H]1c2nc(Nc3cc4c(C(C)(C)N)cnc(OCCC[S@@](C)(=N)=O)c4cn3)ccc2C(=O)OC1(C)C (single isomer, unassigned) [Compound 169]
1860	C[C@@H]1c2nc(Nc3cc4c(C(C)(C)N)cnc(O[C@@H](CCS(C)(=O)=O)C(F)(F)F)c4cn3)ccc2C(=O)OC1(C)C (single isomer, unassigned) [Compound 172]
9800	C[C@@H]1c2nc(Nc3cc4c(C(C)(C)N)cnc(O[C@H](CCS(C)(=O)=O)C(F)(F)F)c4cn3)ccc2C(=O)OC1(C)C (single isomer, unassigned) [Compound 173]
3030	CC[C@@](C)(N)c1cnc(O[C@H](C)C[C@@H](C)[S@@](C)(=N)=O)c2cnc(Nc3ccc4c(n3)C3(CC3)[C@@H](C)OC4=O)cc12 (single isomer, unassigned) [Compound 180]
830	CC[C@@](C)(N)c1cnc(O[C@@H](C)CC(C)(C)S(C)(=O)=O)c2cnc(Nc3ccc4c(n3)[C@@H](C)[C@H](C)OC4=O)cc12 (single isomer, unassigned) [Compound 184]
220	CC[C@@](C)(N)c1cnc(O[C@@H](C)CC(C)(C)S(C)(=O)=O)c2cnc(Nc3ccc4c(n3)[C@@H](C)[C@H](C)OC4=O)cc12 (single isomer, unassigned) [Compound 185]
960	CC[C@@](C)(N)c1cnc(O[C@H](C)CC(C)(C)[S@@](C)(=N)=O)c2cnc(Nc3ccc4c(n3)C(C)(C)[C@@H](C)OC4=O)cc12 (single isomer, unassigned) [Compound 188]
1050	CC[C@@](C)(N)c1cnc(O[C@H](C)CC(C)(C)[S@@](C)(=N)=O)c2cnc(Nc3ccc4c(n3)C(C)(C)[C@@H](C)OC4=O)cc12 (single isomer, unassigned) [Compound 189]
5100	CC[C@@](C)(N)c1cnc(O[C@H](C)CC(C)(C)[S@@](C)(=N)=O)c2cnc(Nc3ccc4c(n3)C(C)(C)[C@@H](C)OC4=O)cc12 (single isomer, unassigned) [Compound 190]
3670	CC[C@@](C)(N)c1cnc(O[C@@H](C)CC(C)(C)S(C)(=O)=O)c2cnc(Nc3ccc4c(n3)C(C)(C)[C@H](C)OC4=O)cc12 (single isomer, unassigned) [Compound 191]
940	CC[C@@](C)(N)c1cnc(O[C@@H](C)CC(C)(C)S(C)(=O)=O)c2cnc(Nc3ccc4c(n3)C(C)(C)[C@H](C)OC4=O)cc12 (single isomer, unassigned) [Compound 192]
490	COC[C@@](C)(N)c1cnc(OCCCS(C)(=O)=O)c2cnc(Nc3ccc4c(n3)[C@@H](C)C(C)(C)OC4=O)cc12 (stereo in doubt) [Compound 179]
150	C[C@@H]1c2nc(Nc3cc4c(C(C)(C)N)cnc(OCCCS(C)(=O)=O)c4cn3)ccc2C(=O)OC1(C)C [Compound 17]
310	CC[C@@](C)(N)c1cnc(O[C@H](C)CCS(C)(=O)=O)c2cnc(Nc3ccc4c(n3)CC(C)(C)OC4=O)cc12 [Compound 49]
